Source: paper PMC5845004, “Novel (p)ppGpp Binding and Metabolizing Proteins of Escherichia coli” (mBio, 2018)
Entries after “also recorded” stand apart in the source; their conditions may differ.

How the values were obtained:
HflX = molecular target: HflX; set-up: method as in Table S1 (4); settings: ref Table S1 (4); read-out: Kd, S. aureus HflX (converted); cited from earlier work
Gpt = Gpt (Escherichia coli, UniProt P0A9M5); assay: DRaCALA Kd determination, purified Gpt; assay type: binding, E. coli; settings: 2 nM 32P-labeled ligand, read-out: apparent Kd, Gpt
Chain of Gpt (P0A9M5 whole entry): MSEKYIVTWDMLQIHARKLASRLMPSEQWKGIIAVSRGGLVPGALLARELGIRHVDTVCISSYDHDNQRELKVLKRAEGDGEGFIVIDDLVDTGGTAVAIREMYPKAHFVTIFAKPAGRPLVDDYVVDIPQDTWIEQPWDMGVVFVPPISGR
Procedure: (§2) For Kd measurements by DRaCALA, 2-fold serial dilutions from the highest possible concentrations of each purified protein were prepared in binding buffer B, and approximately 2 nM concentrations of α-^32P-labeled ppGpp, pppGpp, GTP, and GDP were added. The mixtures were incubated for 5 min at RT before spotting of 2 µl of the reaction mixtures onto nitrocellulose membranes. The fractions of bound ligand and the apparent Kd values were calculated as previously described ([37]).

RF3 (PrfC) = RF3 (PrfC) (Escherichia coli, UniProt P0A7I4); assay: DRaCALA Kd determination, purified RF3; assay type: binding, E. coli; settings: 2 nM 32P-labeled ligand, read-out: apparent Kd, RF3 (PrfC)
Chain of RF3 (PrfC) (P0A7I4 whole entry): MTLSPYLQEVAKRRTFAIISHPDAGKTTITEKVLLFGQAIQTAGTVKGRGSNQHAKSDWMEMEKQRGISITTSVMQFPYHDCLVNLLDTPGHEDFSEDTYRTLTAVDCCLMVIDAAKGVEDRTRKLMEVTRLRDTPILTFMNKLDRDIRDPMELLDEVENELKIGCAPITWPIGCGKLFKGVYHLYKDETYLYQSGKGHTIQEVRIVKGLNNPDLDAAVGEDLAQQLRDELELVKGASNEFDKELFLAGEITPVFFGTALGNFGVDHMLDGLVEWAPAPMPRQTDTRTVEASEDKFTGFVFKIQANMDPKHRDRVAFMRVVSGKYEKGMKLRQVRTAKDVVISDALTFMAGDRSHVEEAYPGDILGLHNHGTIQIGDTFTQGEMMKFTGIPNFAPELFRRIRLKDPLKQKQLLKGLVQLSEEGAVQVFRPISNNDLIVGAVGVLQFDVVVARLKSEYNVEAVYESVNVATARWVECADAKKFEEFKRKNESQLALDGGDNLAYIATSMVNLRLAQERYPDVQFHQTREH
Procedure: as §2

TrmE = TrmE (Escherichia coli, UniProt P25522); assay: DRaCALA Kd determination, purified TrmE; assay type: binding, E. coli; settings: in the presence of magnesium, read-out: apparent Kd, TrmE
Chain of TrmE (P25522 whole entry): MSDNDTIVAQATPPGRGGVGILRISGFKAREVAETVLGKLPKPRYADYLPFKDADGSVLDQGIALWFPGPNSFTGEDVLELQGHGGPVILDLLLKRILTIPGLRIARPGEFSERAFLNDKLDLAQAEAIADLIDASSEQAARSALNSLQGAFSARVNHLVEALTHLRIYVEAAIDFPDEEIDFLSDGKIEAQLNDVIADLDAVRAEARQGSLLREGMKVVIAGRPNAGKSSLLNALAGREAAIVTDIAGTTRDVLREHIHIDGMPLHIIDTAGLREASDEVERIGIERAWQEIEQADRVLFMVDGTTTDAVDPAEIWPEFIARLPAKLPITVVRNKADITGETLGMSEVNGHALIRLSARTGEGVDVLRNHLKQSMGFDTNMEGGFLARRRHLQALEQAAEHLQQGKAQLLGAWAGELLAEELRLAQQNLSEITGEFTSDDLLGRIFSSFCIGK
Procedure: (§3) For Kd measurements by DRaCALA, 2-fold serial dilutions from the highest possible concentrations of each purified protein were prepared in binding buffer B, and approximately 2 nM concentrations of α-^32P-labeled ppGpp, pppGpp, GTP, and GDP were added. The mixtures were incubated for 5 min at RT before spotting of 2 µl of the reaction mixtures onto nitrocellulose membranes. […] For competition assays, purified proteins at the specified concentrations were incubated with 2 nM [α-^32P]ppGpp or [α-^32P]pppGpp in the presence of 100 μM competitor nucleotides in binding buffer B. The reaction mixtures were incubated for 5 min at RT, 2 µl was spotted onto nitrocellulose membranes, and the values corresponding to the bound fractions were determined. EDTA was added at excess concentrations as specified for each case.

HypB = HypB (Escherichia coli, UniProt P0AAN3); assay: DRaCALA Kd determination, purified HypB; assay type: binding, E. coli; settings: 2 nM 32P-labeled ligand, read-out: apparent Kd, HypB
Chain of HypB (P0AAN3 whole entry): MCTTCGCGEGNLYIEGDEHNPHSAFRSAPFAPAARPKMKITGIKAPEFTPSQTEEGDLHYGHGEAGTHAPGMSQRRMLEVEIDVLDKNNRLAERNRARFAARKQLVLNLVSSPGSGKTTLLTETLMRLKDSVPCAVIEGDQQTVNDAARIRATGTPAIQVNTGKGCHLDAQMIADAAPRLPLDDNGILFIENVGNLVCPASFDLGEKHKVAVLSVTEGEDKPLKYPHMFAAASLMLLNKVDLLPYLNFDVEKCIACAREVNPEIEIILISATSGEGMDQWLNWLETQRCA
Procedure: as §3

ObgE = ObgE (Escherichia coli, UniProt P42641); assay: DRaCALA Kd determination, purified ObgE; assay type: binding, E. coli; settings: 2 nM 32P-labeled ligand, read-out: apparent Kd, ObgE (converted)
Chain of ObgE (P42641 whole entry): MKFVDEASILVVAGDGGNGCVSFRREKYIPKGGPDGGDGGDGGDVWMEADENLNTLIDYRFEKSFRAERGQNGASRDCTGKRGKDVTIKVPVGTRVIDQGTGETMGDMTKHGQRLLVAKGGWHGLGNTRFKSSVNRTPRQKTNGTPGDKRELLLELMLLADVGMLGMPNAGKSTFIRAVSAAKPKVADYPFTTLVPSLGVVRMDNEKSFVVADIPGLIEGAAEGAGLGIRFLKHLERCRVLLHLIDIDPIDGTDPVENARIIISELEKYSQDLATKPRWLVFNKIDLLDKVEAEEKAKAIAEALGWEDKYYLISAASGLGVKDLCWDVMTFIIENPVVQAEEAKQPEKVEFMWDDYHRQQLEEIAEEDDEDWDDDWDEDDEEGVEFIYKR
Procedure: as §2

PPX = molecular target: PPX; set-up: method as in ref 35 (Table S1 ref 20); settings: competitive; ref 35 (Table S1 ref 20); read-out: inhibitory constant Ki, PPX; cited from earlier work
NudG [1] = molecular target: T1, NudG (Escherichia coli, UniProt P77788); assay: DRaCALA competition assay, lysate with overproduced NudG; assay type: binding, E. coli; settings: whole-cell lysate, 2 nM hot (p)ppGpp, 100 µM cold competitor
T1 construct: expressed in transfected cells; host or cells: E. coli ASKA collection strain, IPTG-induced, whole-cell lysate
T1 sequence (P77788 whole entry): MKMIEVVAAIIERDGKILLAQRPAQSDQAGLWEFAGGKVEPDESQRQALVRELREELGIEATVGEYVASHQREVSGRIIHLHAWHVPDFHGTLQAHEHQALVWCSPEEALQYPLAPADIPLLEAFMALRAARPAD
Procedure: (§1) Bacterial cells were collected and frozen at −80°C.

RsgA = molecular target: RsgA; set-up: method as in Table S1 (4); settings: ref Table S1 (4); read-out: Kd, S. aureus RsgA (converted); cited from earlier work
Era = Era (Escherichia coli, UniProt P06616); assay: DRaCALA Kd determination, purified Era; assay type: binding, E. coli; settings: 2 nM 32P-labeled ligand, read-out: apparent Kd, Era (converted)
Chain of Era (P06616 whole entry): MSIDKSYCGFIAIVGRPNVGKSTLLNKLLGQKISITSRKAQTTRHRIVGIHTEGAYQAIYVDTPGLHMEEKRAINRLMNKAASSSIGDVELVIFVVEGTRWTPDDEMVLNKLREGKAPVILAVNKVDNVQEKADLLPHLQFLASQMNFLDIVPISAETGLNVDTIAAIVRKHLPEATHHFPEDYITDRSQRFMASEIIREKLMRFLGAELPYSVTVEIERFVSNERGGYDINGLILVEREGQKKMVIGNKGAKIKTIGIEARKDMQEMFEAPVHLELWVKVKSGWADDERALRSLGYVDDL
Procedure: as §2

NudG [2] = molecular target: T1, NudG; assay: In vitro cleavage assay (TLC), NudG; assay type: biochemical, E. coli; settings: purified NudG, buffer B with 10 mM MgCl2, TLC
Procedure: The purified His6-MutT and His6-NudG proteins were tested for their relative levels of cleavage of ppGpp compared to those seen with their native substrates. For this, a 1 μM concentration of each protein and a 10 nM concentration of [α-^32P]ppGpp were used together with 100 μM concentrations of cold competitors [ppGpp, GTP, ATP, 8-oxo-(d)GTP, 2-hydroxyl-(d)ATP] or 50 mM EDTA in buffer B. The samples were incubated at 30°C for 10 min and for 1 h before the reactions were stopped by adding 50 mM EDTA. The cleavage products were resolved by TLC as described above. The purified His6-NadR and His6-TrmE proteins were tested for their cleavage of both GTP and ppGpp. For cleavage of GTP, 10 μM concentrations of His6-MBP, His6-TrmE, and 20 μM His6-NadR proteins were used with 2 nM [α-^32P]GTP and 100 μM cold GTP in buffer B. For cleavage of ppGpp, 10 μM concentrations of His6-TrmE, His6-MBP, and His6-NadR proteins were used with 10 nM [α-^32P]ppGpp in buffer B. Of note, for His6-TrmE, another reaction was also performed in buffer B supplemented with 100 mM KCl. The reactions were performed at RT for 10 min and were stopped by adding 17% formic acid. The cleavage products were resolved by TLC as described above.
A 20 μM concentration of each of purified proteins MutT, NudG, NadR, TrmE, and MBP (as a negative control) was incubated with 100 μM ppGpp in buffer B (containing 40 mM Tris [pH 7.5], 100 mM NaCl, and 10 mM MgCl2) for 20 min at room temperature. Samples were snap-frozen on dry ice and analyzed with UPLC-MS afterward. All samples and buffers were stored at −80°C, thawed on ice, and kept at 4°C during analysis. For the analysis, a UPLC-quadrupole time of flight (UPLC-qTOF) method (Waters) was used. Analysis conditions were as follows: column, zic-HILIC (Merck Millipore) (150 by 2.1 mm, […], gradient elution, flow rate set to 0.3 ml/min); mobile phase A, 10 mM ammonium acetate (pH 5); mobile phase B, 90% acetonitrile with 10 mM ammonium acetate (pH 5). The gradient was set up as follows: min 0 to 2, 80% B; min 2 to 16, 80% B to 50% B; hold until min 20; injection volume, 4 µl. The detection conditions were as follows: photodiode array detector (PDA), […] (evaluated at 260 nm); MS, ionization; electrospray ionization (ESI+), scan, 200 to 800 m/z with lock mass correction. Analytes were identified by their accurate mass and retention time data for a known standard dissolved in used buffer (for the chemicals of the same nominal masses). These standards were either synthesized and their structures confirmed by nuclear magnetic resonance (NMR) (for ppGp, pGpp, and pGp) or purchased (ppGpp was purchased from Jena Biocsience and GTP from Sigma-Aldrich).

UshA = molecular target: T2, UshA (Escherichia coli, UniProt P07024); assay: DRaCALA competition assay, lysate with overexpressed UshA; assay type: binding; settings: cell lysate, 2 nM hot (p)ppGpp, 100 µM cold competitor
T2 sequence (P07024 26-550): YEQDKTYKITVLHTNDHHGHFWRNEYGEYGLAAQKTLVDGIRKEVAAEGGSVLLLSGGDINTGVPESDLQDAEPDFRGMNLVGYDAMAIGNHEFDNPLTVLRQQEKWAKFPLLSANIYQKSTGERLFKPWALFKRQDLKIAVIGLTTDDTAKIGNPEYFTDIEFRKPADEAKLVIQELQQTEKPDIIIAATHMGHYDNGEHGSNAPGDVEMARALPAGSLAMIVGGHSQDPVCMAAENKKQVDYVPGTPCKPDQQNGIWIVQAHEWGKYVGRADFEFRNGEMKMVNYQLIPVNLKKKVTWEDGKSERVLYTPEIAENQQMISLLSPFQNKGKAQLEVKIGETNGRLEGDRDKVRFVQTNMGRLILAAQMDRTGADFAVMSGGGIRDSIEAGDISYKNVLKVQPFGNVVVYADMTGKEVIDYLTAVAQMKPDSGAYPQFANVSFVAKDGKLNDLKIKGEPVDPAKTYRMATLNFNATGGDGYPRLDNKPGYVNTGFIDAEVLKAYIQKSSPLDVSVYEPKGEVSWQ
Procedure: as §1

SMILES	Kd (HflX) [µM]	Kd (Gpt) [µM]	Kd (RF3 (PrfC)) [µM]	Kd (TrmE) [µM]	Kd (HypB) [µM]	Kd (ObgE) [µM]	Ki (PPX) [µM]	competition for NudG-bound (p)ppGpp (NudG [1])	Kd (RsgA) [µM]	Kd (Era) [µM]	cleavage by NudG (NudG [2])	competition for UshA-bound (p)ppGpp (UshA)
Nc1nc2c(ncn2[C@@H]2O[C@H](COP(=O)(O)OP(=O)(O)O)[C@@H](OP(=O)(O)OP(=O)(O)O)[C@H]2O)c(=O)[nH]1 [ppGpp, guanosine tetraphosphate]	0.87 ± 0.15	5.2 ± 0.9	0.82 ± 0.09	1.7 ± 0.5	12.4 ± 3	1.8 ± 0.3	200	could outcompete the bound, radiolabeled (p)ppGpp	1.69 ± 0.13	4.3 ± 0.6	degraded into smaller products; also recorded: relatively weak ppGpp cleavage activity	could outcompete the bound, radiolabeled (p)ppGpp
Nc1nc2c(ncn2[C@@H]2O[C@H](COP(=O)(O)OP(=O)(O)OP(=O)(O)O)[C@@H](OP(=O)(O)OP(=O)(O)O)[C@H]2O)c(=O)[nH]1 [pppGpp, guanosine pentaphosphate]	13.6	6.7 ± 0.9	15 ± 5	2.2 ± 0.9	14.8 ± 5.1	6.6	10	could outcompete the bound, radiolabeled (p)ppGpp	10.3	21.4	degraded into smaller products	could outcompete the bound, radiolabeled (p)ppGpp
